Source: ChEMBL document CHEMBL1201862, “PubChem BioAssay data set” (2004)
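Exposure lasted 48 hours, with cells grown in 96-well plates and compounds tested at five concentrations. GI50 is the concentration that inhibits growth by half.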 Activity calls are given as the source filed them. Cut-off read from the data, not from the text of the source: active = GI50 up to about 1.1 µM and inactive = higher.

Tests used:
Experiment in all cases: NCI tumour cell line growth inhibition, 48 h
T47D = test system: T47D
OVCAR-5 = test system: OVCAR-5
786-0 = test system: 786-0
HOP-92 = test system: HOP-92
SK-MEL-2 = test system: SK-MEL-2
HL-60 = test system: HL-60
U-251 = test system: U-251
SNB-19 = test system: SNB-19
MDA-N = test system: MDA-N
SF-539 = test system: SF-539
NCI-H226 = test system: NCI-H226
LOX IMVI = test system: LOX IMVI
SR = test system: SR
OVCAR-4 = test system: OVCAR-4
A549 = test system: A549
ACHN = test system: ACHN
K562 = test system: K562
MOLT-4 = test system: MOLT-4
COLO 205 = test system: COLO 205
RPMI-8226 = test system: RPMI-8226
MDA-MB-435 = test system: MDA-MB-435
NCI-H460 = test system: NCI-H460
DU-145 = test system: DU-145
HCT-116 = test system: HCT-116
BT-549 = test system: BT-549
CAKI-1 = test system: CAKI-1
CCRF-CEM = test system: CCRF-CEM
HOP-62 = test system: HOP-62
NCI-H23 = test system: NCI-H23
SW-620 = test system: SW-620
UACC-62 = test system: UACC-62
A498 = test system: A498
Malme-3M = test system: Malme-3M
NCI-H522 = test system: NCI-H522
SK-MEL-28 = test system: SK-MEL-28
RXF 393 = test system: RXF 393
TK-10 = test system: TK-10
IGROV-1 = test system: IGROV-1
OVCAR-8 = test system: OVCAR-8
MCF7 = test system: MCF7
UO-31 = test system: UO-31
PC-3 = test system: PC-3
HT-29 = test system: HT-29
SF-268 = test system: SF-268
Hs-578T = test system: Hs-578T
SK-MEL-5 = test system: SK-MEL-5
HCT-15 = test system: HCT-15
SN12C = test system: SN12C
EKVX = test system: EKVX
MDA-MB-231 = test system: MDA-MB-231
UACC-257 = test system: UACC-257
KM12 = test system: KM12
OVCAR-3 = test system: OVCAR-3
NCI/ADR-RES = test system: NCI/ADR-RES
SK-OV-3 = test system: SK-OV-3
SF-295 = test system: SF-295
M14 = test system: M14
HCC 2998 = test system: HCC 2998
SNB-75 = test system: SNB-75

NCC1OC(n2cnc3c(=O)[nH]c(N)nc32)C(O)C1O (stereo not drawn)
GI50 (T47D): 97.1 µM (inactive) | GI50 (OVCAR-5): > 100 µM (inactive) | GI50 (786-0): > 100 µM (inactive) | GI50 (HOP-92): > 100 µM (inactive) | GI50 (SK-MEL-2): > 100 µM (inactive) | GI50 (HL-60): > 100 µM (inactive) | GI50 (U-251): > 100 µM (inactive) | GI50 (SNB-19): > 100 µM (inactive) | GI50 (MDA-N): > 100 µM (inactive) | GI50 (SF-539): > 100 µM (inactive) | GI50 (NCI-H226): > 100 µM (inactive) | GI50 (LOX IMVI): 69.8 µM (inactive) | GI50 (SR): < 0.01 µM (active) | GI50 (OVCAR-4): > 100 µM (inactive) | GI50 (A549): > 100 µM (inactive) | GI50 (ACHN): > 100 µM (inactive) | GI50 (K562): 1 µM (active) | GI50 (MOLT-4): > 100 µM (inactive) | GI50 (COLO 205): > 100 µM (inactive) | GI50 (RPMI-8226): 2.13 µM (inactive) | GI50 (MDA-MB-435): > 100 µM (inactive) | GI50 (NCI-H460): > 100 µM (inactive) | GI50 (DU-145): > 100 µM (inactive) | GI50 (HCT-116): > 100 µM (inactive) | GI50 (BT-549): > 100 µM (inactive) | GI50 (CAKI-1): > 100 µM (inactive) | GI50 (CCRF-CEM): > 82.8 µM (inactive) | GI50 (HOP-62): > 100 µM (inactive) | GI50 (NCI-H23): > 100 µM (inactive) | GI50 (SW-620): > 100 µM (inactive) | GI50 (UACC-62): > 100 µM (inactive) | GI50 (A498): > 100 µM (inactive) | GI50 (Malme-3M): > 100 µM (inactive) | GI50 (NCI-H522): > 100 µM (inactive) | GI50 (SK-MEL-28): > 100 µM (inactive) | GI50 (RXF 393): > 100 µM (inactive) | GI50 (TK-10): > 59.7 µM (inactive) | GI50 (IGROV-1): > 100 µM (inactive) | GI50 (OVCAR-8): > 100 µM (inactive) | GI50 (MCF7): 95.5 µM (inactive) | GI50 (UO-31): > 100 µM (inactive) | GI50 (PC-3): > 100 µM (inactive) | GI50 (HT-29): > 100 µM (inactive) | GI50 (SF-268): > 100 µM (inactive) | GI50 (Hs-578T): > 100 µM (inactive) | GI50 (SK-MEL-5): > 100 µM (inactive) | GI50 (HCT-15): > 100 µM | GI50 (SN12C): > 100 µM (inactive) | GI50 (EKVX): > 100 µM (inactive) | GI50 (MDA-MB-231): > 100 µM (inactive) | GI50 (UACC-257): > 100 µM (inactive) | GI50 (KM12): > 100 µM (inactive) | GI50 (OVCAR-3): > 53.3 µM (inactive) | GI50 (NCI/ADR-RES): > 100 µM (inactive) | GI50 (SK-OV-3): > 100 µM (inactive) | GI50 (SF-295): > 100 µM (inactive) | GI50 (M14): > 100 µM (inactive)

S=c1nc2[nH]c3ccc(Br)cc3c2n[nH]1
GI50 (T47D): > 100 µM (inactive) | GI50 (OVCAR-5): > 100 µM (inactive) | GI50 (786-0): 35.2 µM (inactive) | GI50 (HOP-92): > 100 µM (inactive) | GI50 (SK-MEL-2): 25.6 µM (inactive) | GI50 (HL-60): 12 µM (inactive) | GI50 (U-251): 53.2 µM (inactive) | GI50 (SNB-19): > 100 µM (inactive) | GI50 (MDA-N): 16.7 µM (inactive) | GI50 (SF-539): > 100 µM (inactive) | GI50 (NCI-H226): 94.6 µM (inactive) | GI50 (LOX IMVI): 30.1 µM (inactive) | GI50 (SR): 19 µM (inactive) | GI50 (OVCAR-4): 25 µM (inactive) | GI50 (A549): 55 µM (inactive) | GI50 (K562): 47.8 µM (inactive) | GI50 (MOLT-4): 30.3 µM (inactive) | GI50 (COLO 205): 98.4 µM (inactive) | GI50 (RPMI-8226): 37.1 µM (inactive) | GI50 (MDA-MB-435): 20.7 µM (inactive) | GI50 (HCC 2998): > 100 µM (inactive) | GI50 (NCI-H460): 63.1 µM (inactive) | GI50 (DU-145): 85.3 µM (inactive) | GI50 (HCT-116): 70.5 µM (inactive) | GI50 (BT-549): 50.2 µM (inactive) | GI50 (CAKI-1): 69.8 µM (inactive) | GI50 (SW-620): 53 µM (inactive) | GI50 (UACC-62): 30.5 µM (inactive) | GI50 (A498): > 100 µM (inactive) | GI50 (Malme-3M): 83.8 µM (inactive) | GI50 (NCI-H522): 24.3 µM (inactive) | GI50 (SK-MEL-28): > 100 µM (inactive) | GI50 (RXF 393): > 100 µM (inactive) | GI50 (TK-10): > 100 µM (inactive) | GI50 (IGROV-1): 19.3 µM (inactive) | GI50 (OVCAR-8): 52.1 µM (inactive) | GI50 (MCF7): 19 µM (inactive) | GI50 (UO-31): 72.8 µM (inactive) | GI50 (PC-3): 43.1 µM (inactive) | GI50 (HT-29): 35 µM (inactive) | GI50 (SF-268): 27.9 µM (inactive) | GI50 (Hs-578T): 28.9 µM (inactive) | GI50 (SK-MEL-5): 36.4 µM (inactive) | GI50 (HCT-15): 22.1 µM | GI50 (SN12C): 66.1 µM (inactive) | GI50 (SNB-75): 40.4 µM (inactive) | GI50 (EKVX): 14.2 µM (inactive) | GI50 (MDA-MB-231): 49.9 µM (inactive) | GI50 (UACC-257): 62.5 µM (inactive) | GI50 (KM12): 29.2 µM (inactive) | GI50 (OVCAR-3): 41 µM (inactive) | GI50 (NCI/ADR-RES): 39.8 µM (inactive) | GI50 (SK-OV-3): > 100 µM (inactive) | GI50 (M14): 51.5 µM (inactive)

CNC(=O)Nc1nc2cc([N+](=O)[O-])ccc2[nH]1
GI50 (T47D): > 100 µM (inactive) | GI50 (OVCAR-5): > 100 µM (inactive) | GI50 (786-0): > 100 µM (inactive) | GI50 (HOP-92): 86.1 µM (inactive) | GI50 (SK-MEL-2): 21.5 µM (inactive) | GI50 (HL-60): 49 µM (inactive) | GI50 (U-251): > 100 µM (inactive) | GI50 (SNB-19): > 100 µM (inactive) | GI50 (MDA-N): > 100 µM (inactive) | GI50 (SF-539): > 100 µM (inactive) | GI50 (NCI-H226): > 100 µM (inactive) | GI50 (LOX IMVI): > 100 µM (inactive) | GI50 (SR): 47.1 µM (inactive) | GI50 (OVCAR-4): > 100 µM (inactive) | GI50 (A549): > 100 µM (inactive) | GI50 (ACHN): > 100 µM (inactive) | GI50 (K562): > 100 µM (inactive) | GI50 (MOLT-4): > 100 µM (inactive) | GI50 (COLO 205): > 100 µM (inactive) | GI50 (RPMI-8226): > 100 µM (inactive) | GI50 (MDA-MB-435): > 100 µM (inactive) | GI50 (HCC 2998): > 100 µM (inactive) | GI50 (NCI-H460): 7.55 µM (inactive) | GI50 (DU-145): > 100 µM (inactive) | GI50 (HCT-116): > 100 µM (inactive) | GI50 (BT-549): 49.9 µM (inactive) | GI50 (CAKI-1): 61.4 µM (inactive) | GI50 (CCRF-CEM): 67.8 µM (inactive) | GI50 (HOP-62): > 100 µM (inactive) | GI50 (NCI-H23): > 100 µM (inactive) | GI50 (SW-620): > 100 µM (inactive) | GI50 (A498): > 100 µM (inactive) | GI50 (Malme-3M): > 100 µM (inactive) | GI50 (NCI-H522): 44.1 µM (inactive) | GI50 (SK-MEL-28): > 100 µM (inactive) | GI50 (RXF 393): > 100 µM (inactive) | GI50 (TK-10): > 100 µM (inactive) | GI50 (IGROV-1): 64.6 µM (inactive) | GI50 (OVCAR-8): > 100 µM (inactive) | GI50 (MCF7): > 100 µM (inactive) | GI50 (UO-31): > 100 µM (inactive) | GI50 (PC-3): > 100 µM (inactive) | GI50 (HT-29): > 100 µM (inactive) | GI50 (SF-268): > 100 µM (inactive) | GI50 (Hs-578T): > 100 µM (inactive) | GI50 (SK-MEL-5): > 100 µM (inactive) | GI50 (HCT-15): > 100 µM | GI50 (SN12C): > 100 µM (inactive) | GI50 (EKVX): > 100 µM (inactive) | GI50 (MDA-MB-231): > 100 µM (inactive) | GI50 (UACC-257): > 100 µM (inactive) | GI50 (KM12): > 100 µM (inactive) | GI50 (OVCAR-3): > 100 µM (inactive) | GI50 (NCI/ADR-RES): > 100 µM (inactive) | GI50 (SK-OV-3): > 100 µM (inactive) | GI50 (SF-295): > 100 µM (inactive) | GI50 (M14): > 100 µM (inactive)
